Test results as given in US10736859B2, “Eutectic formulations of cyclobenzaprine hydrochloride and amitriptyline hydrochloride” (Tonix Pharma Holdings Limited, priority 2013, dated 2020).
Entries after “also recorded” stand apart in the source; their conditions may differ. Each block holds one compound with its values, some of them ahead of it.

Legend:
Assay type in all cases: physicochemical
[1] = DSC compatibility of Amitriptyline HCl with excipients, 1:1 milled mixtures (Example 4); conditions: Amitriptyline HCl + excipient 1:1, milled in agate mortar
Procedure: Thermal analytical techniques were used to assess the compatibility of the drug product amitriptyline HCl. The compatibility assessment was carried out between the API and the excipients in a 1:1 ratio. On the basis of thermal events recorded for each component and for the mixtures, the analyses were carried out by investigating the peaks recorded by DSC in mixtures between API and the excipients. Differences in thermal profiles between the single compound and the related mixtures were obtained after milling the products in an agate mortar.
DSC was performed substantially as described in Examples 1 and 2. The following raw materials were used: • Amitriptyline HCl • Sodium stearyl fumarate • Stearic acid • Glycerol dibehenate • Magnesium stearate • Pearlitol flash • Pearlitol 200 SO/Mannitol • Unipure DW/Com starch pregelatinized • Crospovidone-Kollidon CL • Silicon Colloidal/Aerosil 200 • Sodium phosphate dibasic • Sodium bicarbonate • Sodium carbonate • Sodium Phosphate dodecahydrate • Sodium Phosphate anhydrous.

[2] = DSC, FT-IR/ATR and XRPD compatibility of Cyclobenzaprine HCl with additional excipients, mixed (A) and milled (B) 1:1 mixtures (Example 2); conditions: for Interactions between Cyclobenzaprine HCl and excipients, Mixture 1:1 (mixed): mixture A, mechanical mixing only; for Interactions between Cyclobenzaprine HCl and excipients, Mixture 1:1 (mixed) / Interactions between Cyclobenzaprine HCl and excipients, Mixture 1:1 (milled): DSC; for Interactions between Cyclobenzaprine HCl and excipients, Mixture 1:1 (milled): mixture B, ground in agate mortar
Procedure: As described above, thermal analytical techniques were further used to assess the compatibility of a drug product (tablet) containing Cyclobenzaprine HCl (API). The compatibility assessment was carried out between the API and additional excipients in a 1:1 ratio. The 1:1 API-excipient mixtures were formed in two different ways: first, by mixing only, and second, by strong milling in an agate mortar. The thermal behavior recorded in the two different mixtures were compared with those of the single components. On the basis of thermal events recorded for each component and for the mixtures, the analyses were carried out by investigating the meanings of the peaks recorded by differential scanning calorimetry (DSC) in mixtures between the API and the excipients. Furthermore, in order to define the nature of the interaction, the Fourier Transformate Infra Red Spectroscopy with Total Attenuated Reflectance (FT-IR/ATR) and X-ray powder diffraction (XRPD) of some samples (API, excipient, and mixed and milled mixtures) was carried out and compared.
Aliquots of API and each excipient were weighed in a ratio of 1:1 and ground in an agate mortar. Then, the homogeneous mixtures were analyzed. These sample mixtures were labeled “B”, while the mechanical-only mixtures were labeled “A.”
(§1) The DSC heating curves were obtained by TA 821 DSC Mettler instrument under the following conditions: • Heating rate: 10° C./min • Ambient: Nitrogen 30 mL/min • Sample holder: normal open aluminum pan • Temperature range: from 25° C. to 250° C. • Instrument calibration: Indium sample purity 99.999% Fourier Transformate Infra Red Spectroscopy with Total Attenuated Reflectance (FT-IR/ATR)
The FT-IR spectra were collected with a Perkin Elmer spectrum Two instrument with air as background and 4 cm^−1 resolution.
X-ray powder diffraction (XRPD) tests were performed with the ULTIMA IV instrument (Rigaku), laying the sample on a static sample holder. The X-ray focusing slit has a variable width, interlocked with the q value. The X-ray tube has a Copper target, with a current intensity of 40 mA and a voltage of 40 kV. Radiation was generated by the Cockcroft-Walton method, and was constituted by Kα1 (1.540562 Å) and Kα2 (1.544398 Å). The analytical conditions were: • Fixed Time; sampling width 0.02 deg, scanning rate 1.3 s/step, 2 q range 3.35 deg and sample holder; amorphous glass equiangular 9200/2G, 0.2 mm deep. The sample was pressed with a glass plate.

[3] = DSC compatibility of Cyclobenzaprine HCl (API) with excipients, milled mixtures (Example 1); conditions: for Excipient reactions with API, Mixture 1:1: Cyclobenzaprine HCl + excipient 1:1, ground in agate mortar; for Excipient reactions with API, Mixture in formulation ratio: Cyclobenzaprine HCl + excipient in formulation ratio
Procedure: Thermal analytical techniques were used to assess the compatibility of a drug product (tablet) containing Cyclobenzaprine HCl (API). The compatibility assessment was carried out between the API and a number of possible excipients in a 1:1 ratio. Based on the thermal events recorded for each component and for the mixtures, the analyses were carried out by investigating the peaks recorded by differential scanning calorimetry (DSC) in mixture between API and the excipients. Differences in thermal profiles between the single compound and the related mixture obtained after milling the products in an agate mortar were evaluated. Stability and compatibility also were also assessed on the final drug product after stress conditions at 40° C. and 50° C. for one month.
A “formulation ratio” mixture was made with the following composition: 2.40 mg Cyclobenzaprine HCl, 31.55 mg Mannitol and Maize starch, 2.00 Crospovidone, 0.50 mg colloidal silica, 0.050 mg Sodium Stearyl Fumarate, and 1.05 Potassium hydrogen phosphate.
Aliquots of API and each excipient were weighed in a ratio of 1:1 (unless specified otherwise) and ground in an agate mortar. The homogeneous mixtures then were analyzed.
as §1, with “with a” for “by”, “99.999%” for “99.999% Fourier Transformate Infra Red Spectroscopy with Total Attenuated Reflectance (FT-IR/ATR)”

[4] = listed as Trisodium Citrate anhydrous
[5] = listed as trisodium citrate dihydrate, citrate dihydrate
[6] = listed as sodium phosphate dihydrate, Sodium phosphate dihydrate
[7] = listed as sodium phosphate anhydrous
[8] = listed as Sodium Stearyl fumarate, fumarate

Compound: CCCCCCCCCCCCCCCCCC(=O)O [Stearic acid]
Interactions between API and excipients, Mixture in formulation (1:1 ratio) [1]: small physical interaction; also recorded: No interaction

Interactions between API and excipients, Mixture in formulation (1:1 ratio) [1]: No interaction
Interactions between API and excipients, Mixture in formulation (1:1 ratio) ([1]; listed as glycerol dibehenate): small physical interaction
Compound: CCCCCCCCCCCCCCCCCCCCCC(=O)OCC(CO)OC(=O)CCCCCCCCCCCCCCCCCCCCC (centres unmarked) [Glycerol dibehenate]

Compound: O=C([O-])CC(O)(CC(=O)[O-])C(=O)[O-].[Na+].[Na+].[Na+] [Tri Sodium Citrate anhydrous, Trisodium citrate anhydrous]
Chemical acid-base reaction by FT-IR/ATR ([2]; mixture A 1:1 with Cyclobenzaprine HCl, room temperature, chlorohydrate band 3000-2000 cm-1): no chemical acid-base reaction had occurred
Interactions between Cyclobenzaprine HCl and excipients, Mixture 1:1 (mixed) [2]: Physical
Interactions between Cyclobenzaprine HCl and excipients, Mixture 1:1 (mixed) [2, 4]: physical complex melting at a lower temperature
Interactions between Cyclobenzaprine HCl and excipients, Mixture 1:1 (milled) [2]: Physical
Interactions between Cyclobenzaprine HCl and excipients, Mixture 1:1 (milled) [2, 4]: physical complex melting at lower temperature

Compound: O.O.O.O.O.O.O.O=P([O-])([O-])O.[Na+].[Na+] [Di Sodium phosphate heptahydrate]
Interactions between Cyclobenzaprine HCl and excipients, Mixture 1:1 (mixed) [2]: Chemical
Interactions between Cyclobenzaprine HCl and excipients, Mixture 1:1 (milled) [2]: Chemical

Compound: O=P([O-])([O-])O.[K+].[K+] [Potassium phosphate dibasic, dipotassium hydrogen phosphate]
Excipient reactions with API, Mixture 1:1 [3]: Acid - base interaction
Excipient reactions with API, Mixture 1:1 ([3]; listed as Potassium phosphate bibasic): chemical interaction (acid-base)
Excipient reactions with API, Mixture in formulation ratio [3]: Low chemical
Excipient reactions with API, Mixture in formulation ratio ([3]; listed as K2HPO4): small interaction

Compound: O=P([O-])([O-])O.[Na+].[Na+] [Sodium phosphate dibasic]
Interactions between API and excipients, Mixture in formulation (1:1 ratio) [1]: Physical interaction

Compound: O.O.O=C([O-])CC(O)(CC(=O)[O-])C(=O)[O-].[Na+].[Na+].[Na+] [Trisodium citrate dihydrate]
Interactions between Cyclobenzaprine HCl and excipients, Mixture 1:1 (mixed) ([2]; citrate dihydrate): Chemical
Interactions between Cyclobenzaprine HCl and excipients, Mixture 1:1 (mixed) [2, 5]: physico-chemical interaction
Interactions between Cyclobenzaprine HCl and excipients, Mixture 1:1 (milled) ([2]; citrate dihydrate): Chemical
Interactions between Cyclobenzaprine HCl and excipients, Mixture 1:1 (milled) [2, 5]: physico-chemical interaction

Compound: O.O.O=P([O-])([O-])O.[Na+].[Na+] [Di Sodium phosphate di hydrate, Di Sodium phosphate dihydrate]
Interactions between Cyclobenzaprine HCl and excipients, Mixture 1:1 (mixed) ([2]; Sodium phosphate dihydrate): Chemical
Interactions between Cyclobenzaprine HCl and excipients, Mixture 1:1 (mixed) [2, 6]: a physical interaction and partial solubilization
Interactions between Cyclobenzaprine HCl and excipients, Mixture 1:1 (milled) ([2]; Sodium phosphate dihydrate): Chemical
Interactions between Cyclobenzaprine HCl and excipients, Mixture 1:1 (milled) [2, 6]: physical interaction

Compound: O=P([O-])([O-])O.[Na+].[Na+] [Di Sodium phosphate anhydrous]
Interactions between Cyclobenzaprine HCl and excipients, Mixture 1:1 (mixed) [2]: Low chemical
Interactions between Cyclobenzaprine HCl and excipients, Mixture 1:1 (mixed) [2, 7]: physical interaction
Interactions between Cyclobenzaprine HCl and excipients, Mixture 1:1 (milled) [2]: Low chemical
Interactions between Cyclobenzaprine HCl and excipients, Mixture 1:1 (milled) [2, 7]: physical interaction
Interactions between API and excipients, Mixture in formulation (1:1 ratio) ([1]; listed as Sodium phosphate anhydrous): No physical interaction

Compound: Magnesium stearate
Interactions between API and excipients, Mixture in formulation (1:1 ratio) [1]: small physical interaction

Excipient reactions with API, Mixture 1:1 ([3]; fumarate): Physical interaction
Excipient reactions with API, Mixture 1:1 [3, 8]: physical interaction
Excipient reactions with API, Mixture in formulation ratio ([3]; fumarate): No interaction
Excipient reactions with API, Mixture in formulation ratio [3, 8]: small physical interaction
Interactions between API and excipients, Mixture in formulation (1:1 ratio) ([1]; fumarate): Physical interaction
Interactions between API and excipients, Mixture in formulation (1:1 ratio) [1, 8]: physical interaction
Compound: CCCCCCCCCCCCCCCCCCOC(=O)/C=C/C(=O)[O-].[Na+] [Sodium stearyl fumarate]

Interactions between Cyclobenzaprine HCl and excipients, Mixture 1:1 (mixed) [2]: Chemical
Interactions between Cyclobenzaprine HCl and excipients, Mixture 1:1 (milled) [2]: Chemical
Compound: OC[C@@H](O)[C@@H](O)[C@H](O)[C@@H](O)CO [Sorbitol]
Interactions between Cyclobenzaprine HCl and excipients, Mixture 1:1 (mixed) ([2]; listed as sorbitol): interaction was observed, due to the solubilization of API by sorbitol
Interactions between Cyclobenzaprine HCl and excipients, Mixture 1:1 (milled) ([2]; listed as sorbitol): interaction was observed, due to the solubilization of API by sorbitol

Compound: Sodium Phosphate dodecahydrate
Interactions between API and excipients, Mixture in formulation (1:1 ratio) [1]: physical/chemical interaction

Compound: O=C([O-])[O-].[Na+].[Na+] [Sodium carbonate]
Interactions between API and excipients, Mixture in formulation (1:1 ratio) [1]: small physical interaction; also recorded: No interaction
